Results taken from PubChem BioAssay AID2696 (Johns Hopkins Ion Channel Center, 2010).

Molecular target: Short transient receptor potential channel 6 (Mus musculus) (UniProt Q61143)
Assay: TRPC6 inhibitor potency, dose response, cell-based, mouse TRPC6, HEK293, membrane potential (AID 2696)
Settings: TRPC6-expressing HEK293 cells, membrane potential dye fluorescence, acetylcholine-stimulated

Sequence of Short transient receptor potential channel 6 (Mus musculus) (Q61143 whole entry, looked up): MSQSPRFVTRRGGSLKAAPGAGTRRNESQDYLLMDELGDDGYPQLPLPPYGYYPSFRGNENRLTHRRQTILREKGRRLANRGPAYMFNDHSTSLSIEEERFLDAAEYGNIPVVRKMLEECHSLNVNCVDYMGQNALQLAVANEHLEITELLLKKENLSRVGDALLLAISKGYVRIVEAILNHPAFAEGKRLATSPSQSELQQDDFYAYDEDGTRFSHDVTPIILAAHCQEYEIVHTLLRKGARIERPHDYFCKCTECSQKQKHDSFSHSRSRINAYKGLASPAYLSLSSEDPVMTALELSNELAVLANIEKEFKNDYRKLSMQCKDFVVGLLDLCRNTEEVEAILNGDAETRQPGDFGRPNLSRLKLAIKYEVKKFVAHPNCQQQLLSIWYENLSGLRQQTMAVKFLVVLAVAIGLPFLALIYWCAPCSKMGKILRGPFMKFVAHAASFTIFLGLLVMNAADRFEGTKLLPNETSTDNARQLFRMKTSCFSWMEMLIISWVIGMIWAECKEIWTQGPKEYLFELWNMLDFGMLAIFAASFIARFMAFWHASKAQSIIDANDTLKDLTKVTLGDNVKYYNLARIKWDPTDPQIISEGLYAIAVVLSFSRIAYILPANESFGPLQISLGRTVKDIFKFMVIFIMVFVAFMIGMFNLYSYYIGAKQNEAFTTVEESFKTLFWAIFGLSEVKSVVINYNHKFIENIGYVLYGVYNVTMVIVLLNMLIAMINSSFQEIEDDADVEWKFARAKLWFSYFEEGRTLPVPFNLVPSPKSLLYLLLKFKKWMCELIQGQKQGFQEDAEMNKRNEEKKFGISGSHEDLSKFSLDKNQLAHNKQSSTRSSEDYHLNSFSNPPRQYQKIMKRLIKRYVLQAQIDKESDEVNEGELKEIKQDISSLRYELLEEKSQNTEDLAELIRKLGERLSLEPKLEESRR

Row | SMILES | IC50
1 | O=C(NNS(=O)(=O)c1ccc(Cl)cc1)C1CCN(Cc2ccccc2)CC1 | 35.5 µM
2 | CCCN(CC1CC1)C(=O)CCc1nnc(CCc2c[nH]c3ccccc23)o1 | 50.1 µM
3 | C#CC[N+]1(C)[C@@H]2CC(OC(=O)C(CO)c3ccccc3)C[C@H]1C(O)C2 (some centres not stated) | 3.55 µM
4 | O=[N+]([O-])c1cc([N+](=O)[O-])c2c(=Nc3ccccc3)n(-c3ccccc3)n(O)c2c1 | 50.1 µM
5 | COC(=O)c1ccc(CN2CCN(C3CCCC3)C(CCO)C2)cc1 (configuration not stated) | 35.5 µM
6 | CN(C)CCCOC(=O)C1c2ccccc2Oc2ccccc21 | 6.31 µM
7 | CCCCC(O)(CCN1CCOCC1)c1ccc(Cl)cc1 (configuration not stated) | 44.7 µM
8 | Cc1cccc[n+]1CC(=O)N1c2ccccc2Sc2ccccc21 | 4.47 µM
9 | CCN(CC)c1ccc2cc(C(N)=O)/c(=N\NC(=O)c3ccncc3)oc2c1 | 50.1 µM
10 | CCOC(=O)c1[nH]c2ccc(F)cc2c1NC(=O)CN1CCN(C/C=C/c2ccccc2)CC1 | 31.6 µM
11 | COc1ccc2ccccc2c1CNCc1ccc(C)cc1 | 44.7 µM
12 | c1ccc2c(c1)CCc1ccccc1C2=C1CCNCC1 | 28.2 µM
13 | O=C1c2cccc3cccc(c23)C(=O)N1CC1CCN(CC(O)COCc2ccc3c(c2)OCO3)CC1 (configuration not stated) | 50.1 µM
14 | OC(CCN1CCCCC1)(c1ccccc1)c1ccccc1 | 2.82 µM
15 | C[C@H]1OC[C@@H](C[N+](C)(C)C)O1 | 4.47 µM
16 | O=C(Nc1ccccc1)Nc1ncc([N+](=O)[O-])s1 | 35.5 µM
17 | O=[N+]([O-])c1cccc(OCCCN2CCC(Cc3ccccc3)CC2)c1 | 50.1 µM
18 | CCN(CC)CCn1c(=N)n(CCOc2ccccc2)c2ccccc21 | 35.5 µM
19 | C=C(C)c1cccc(C(C)(C)NC(=O)NCCN(CC)CC)c1 | 28.2 µM
20 | CCCn1c(=N)n(CC(=O)c2ccc(Cl)cc2)c2ccccc21 | 70.8 µM
21 | O=C(NC(Nc1ncc(S(=O)(=O)c2ccc([N+](=O)[O-])cc2)s1)(C(F)(F)F)C(F)(F)F)c1ccc(Cl)cc1 | 44.7 µM
22 | CC[N+](C)(CC)CCC/C(=N/O)C(O)(c1ccccc1)c1ccccc1 | 15.8 µM

Row | SMILES | IC50
23 | O=C(CCCOc1ccc(Cl)cc1Cl)N1CCN(c2ccccn2)CC1 | 63.1 µM
24 | COc1cc(/C=N/Nc2nncc3ccccc23)cc(OC)c1OC | 44.7 µM
25 | O=C(NCC(=O)N(c1ccc2c(c1)OCCO2)C(C(=O)NC1CCCC1)c1ccco1)c1ccco1 (configuration not stated) | 44.7 µM
26 | COCCCNC(=S)N1CCCN(c2nc3cc(C)ccc3cc2C#N)CC1 | 39.8 µM
27 | CC(C)NCC(O)Cn1c2c(c3ccccc31)CCc1c-2cnn1-c1ccccc1 (configuration not stated) | 79.4 µM
28 | OC(C#CCN1CCCCCC1)(c1ccccc1)c1cccnc1 (configuration not stated) | 39.8 µM
29 | CCC(C)N(CCNC(=O)CC1Oc2ccccc2NC1=O)C1CCCCC1 (configuration not stated) | 28.2 µM
30 | Cc1onc(-c2ccccc2)c1C(=O)N/N=C/c1ccc([N+](=O)[O-])s1 | 39.8 µM
31 | C[N+]12CCC(CC1)C(=C(c1ccccc1)c1ccccc1)C2 | 4.47 µM
32 | COc1ccc(CCC(C)NC2C3CC4CC(C3)CC2C4)cc1 (configuration not stated) | 44.7 µM
33 | CCN(CC)CC(=O)N1c2ccccc2Sc2ccc(Cl)cc21 | 44.7 µM
34 | COc1ccc2ccccc2c1CNCCc1ccccc1 | 50.1 µM
35 | CCN(CC)CCCNc1nc(-n2nc(C)cc2C)nc2sc3c(c12)CC(C)(C)OC3 | 22.4 µM
36 | OC(C#CCN1CCCC1)(c1ccccc1)c1ccccc1 | 3.98 µM
37 | N#Cc1c(-n2cccc2/C=N/O)sc2c1CCCC2 | 39.8 µM
38 | CN(C)C(C)(C)C#CC(O)(c1ccccc1)c1ccccc1 | 39.8 µM
39 | CN(C)CCOC(=O)C1(c2ccccc2)CCCC1 | 44.7 µM
40 | CCOCCCNC(=S)N1CCCN(c2nc3cc(C)ccc3cc2C#N)CC1 | 44.7 µM
41 | Cc1cc(Nc2cccc([N+](=O)[O-])c2)c2cccc(C)c2n1 | 44.7 µM
42 | CC(C)CC1CCCCC1OC(=O)C[N+]1(C)CCCCC1 (configuration not stated) | 15.8 µM
43 | C[N+]1(CC#CC(O)(c2ccccc2)c2ccccc2)CCCC1 | 2.24 µM
44 | CCN(CC)CCC#CC(O)(c1ccccc1)C1CCCCC1 (configuration not stated) | 11.2 µM

Row | SMILES | IC50
45 | CC(C)N1CCC2(CC1)N=C(c1ccc3c(c1)OCO3)CC(c1cc(Cl)ccc1O)N2 (configuration not stated) | 70.8 µM
46 | c1ccc(-c2nc(-c3ccccn3)nc(-c3ccccn3)n2)nc1 | 44.7 µM
47 | CCN(CC)CCCNc1nc2ccccc2c2nc(-c3ccncc3)nn12 | 44.7 µM
48 | CC1(C)CC(N=c2cc(-c3ccccc3)oc3ccc(Cl)cc23)CC(C)(C)N1 | 50.1 µM
49 | Brc1ccc(-c2c[n+]3c(n2-c2ccccc2)SCC3)cc1 | 50.1 µM
50 | Nc1ccc(C(=O)OCc2nc3ccccc3s2)cc1 | 79.4 µM
51 | Cc1cc(-n2cccn2)ccc1CN1CCN(C2CCCC2)C(CCO)C1 (configuration not stated) | 0.5 µM
52 | CCOc1cccc(=NC2CCCCC2)c2c(C)n(C)c(C)c12 | 50.1 µM
53 | CCOC(=O)C1CCCN(C(=O)c2cc3c(C)nc4ccccc4c3o2)C1 (configuration not stated) | 50.1 µM
54 | CC(C)[N+](C)(CCOC(=O)C1c2ccccc2Oc2ccccc21)C(C)C | 0.07 µM
55 | Cc1ccc(N2C(=O)CSC2c2c(F)cccc2Cl)cc1 (configuration not stated) | 17.8 µM
56 | C[N+]1(C)[C@@H]2CC(OC(=O)[C@H](CO)c3ccccc3)C[C@H]1[C@@H]1O[C@@H]12 (some centres not stated) | 0.03 µM
57 | CN(C)CCCNc1nc(-c2ccccc2)nc2ccccc12 | 79.4 µM
58 | Cc1c(CCCN)c2ccccc2n1Cc1ccccc1 | 70.8 µM
59 | C[N+]1(C)CCC(OC(=O)C(c2ccccc2)c2ccccc2)CC1 | 0.28 µM
60 | CCCCCCCCCCCCn1ccc(=N)cc1 | 35.5 µM
61 | Nc1cccc2nc3ccccc3cc12 | 50.1 µM
62 | Cc1cccc2sc(N(CCCN(C)C)C(=O)c3ccc(Cl)s3)nc12 | 70.8 µM
63 | CCOCCN1CCN(C2c3ccccc3CSc3ccccc32)CC1 (configuration not stated) | 50.1 µM
64 | Cn1c(=O)[nH]c(=O)c2c1nc(N1CCCCCC1)n2CCN1CCCCCC1 | 39.8 µM

Continued by falling IC50, values first:

Row | IC50 | SMILES
65 | 79.4 µM | Cc1ccc(OCCCCCCN2CCNCC2)cc1
66 | 79.4 µM | CCN(CC)CCCNc1nc(-c2ccccc2)nc2ccccc12
67 | 79.4 µM | CC[n+]1c(/C=C/Nc2ccccc2)sc2ccccc21
68 | 79.4 µM | Cc1c(Cl)cccc1Nc1nc(NCCO)c2ccccc2n1
69 | 79.4 µM | CCN(CC)CCNC(=O)c1nn(-c2ccc(C)cc2)c(=O)c2c1c1ccccc1n2C
70 | 70.8 µM | O=C(CNCCC1=CCCCC1)Nc1ccc(N2CCCCCC2)cc1
71 | 70.8 µM | Cc1cccc(OCc2nnc(SCc3cc(=O)n4cc(Br)ccc4n3)o2)c1
72 | 70.8 µM | CCCCc1nc2ccccc2c(N)c1CCC (tested in a mixture with another compound)
73 | 70.8 µM | CCOC(=O)c1cn(C2CC2)c2c(F)c(NCCCN(C)C)c(F)cc2c1=O
74 | 70.8 µM | Cn1c(=O)c2c(nc(SCCN3CCCCC3)n2Cc2ccccc2)n(C)c1=O
75 | 70.8 µM | CCN(CC)CC(=O)Nc1cc(N(C)C)nc2ccccc12
76 | 70.8 µM | Cc1cccn2c(=O)c3cc(C(=O)NC(C)C)c(=N)n(Cc4ccncc4)c3nc12
77 | 63.1 µM | N#CCCN(CCN1CCCC1)S(=O)(=O)c1ccc(-c2ccc([N+](=O)[O-])cc2)cc1
78 | 63.1 µM | Cc1cc(C)c2sc(N(CCCN(C)C)C(=O)c3ccc(Br)s3)nc2c1
79 | 50.1 µM | CC(C)(C)c1ccc(OCCCCCCN2CCNCC2)cc1
80 | 50.1 µM | Cc1ccc(-c2nc(C(=O)NCCCN3CCOCC3)cc3c2[nH]c2ccccc23)cc1
81 | 50.1 µM | CN(C)CCCN1c2ccccc2Sc2ccc(C(F)(F)F)cc21
82 | 50.1 µM | Clc1ccc(C(c2ccccc2)N2CCNCC2)cc1 (configuration not stated)
83 | 50.1 µM | Cn1c(NCc2c[nH]c3ccccc23)nc2ccccc21
84 | 50.1 µM | CCn1c2c(c(=N)c3ccccc31)CCC2
85 | 44.7 µM | N=c1sccn1CC(=O)Nc1cc(Cl)ccc1Oc1ccccc1
86 | 44.7 µM | COC(=O)c1[nH]c2ccc(Br)cc2c1NC(=O)CN1CCN(C2CCCCC2)CC1
87 | 44.7 µM | CCOc1ccc(NC(=O)c2c(NC(=O)CN3CCN(C)CC3)sc3c2CCC3)cc1
88 | 44.7 µM | CN(c1ccccc1)P(=O)(N(C)c1ccccc1)N(C)c1ccccc1
89 | 44.7 µM | CC(O)CNCCNCc1c(OCc2ccccc2)ccc2ccccc12 (configuration not stated)
90 | 44.7 µM | COCC(C)NC(=O)c1ccc(CN2CCc3ccccc3C2)cc1 (configuration not stated)
91 | 44.7 µM | Cc1cccc(C(=O)NNC2=C(C(=O)C(F)(F)F)CCC2)c1O

Row | IC50 | SMILES
92 | 44.7 µM | Cc1cc(C)c2nc(C)cc(Nc3ccc(C(=O)NCCO)cc3)c2c1
93 | 44.7 µM | CCCn1c(=N)c(C(=O)NC2CCCC2)cc2c(=O)n3cccc(C)c3nc21
94 | 39.8 µM | Cc1c(CCOC(=O)C23CC4CC(CC(C4)C2)C3)sc[n+]1Cc1ccccc1
95 | 39.8 µM | CCCc1ncc(C(O)(c2ccccc2)c2ccccc2)n1C
96 | 31.6 µM | CCN(CC)CCn1c(NC(=O)c2ccccc2O)nc2ccccc21
97 | 31.6 µM | C/C(=N/OC(=O)c1c(-c2c(Cl)cccc2Cl)noc1C)c1cnccn1
98 | 25.1 µM | Cc1c(C(=O)OCCN2CCCCC2)oc2ccccc12
99 | 19.9 µM | CCOC(=O)N1CCN(S(=O)(=O)c2cc(Br)cnc2N)CC1
100 | 19.9 µM | COc1ccccc1C(=O)NCC1CCN(c2ccc(S(=O)(=O)N3CCOCC3)cc2)CC1
101 | 17.8 µM | S=C1N(c2ccccc2)C(c2ccc(Cl)cc2)N2CCCN12 (configuration not stated)
102 | 15.8 µM | CCC(C)N(CCNC(=O)CC1Oc2ccc(C)cc2NC1=O)C1CCCCC1 (configuration not stated)
103 | 15.8 µM | CCN(CC)CCOC(=O)C1(c2ccccc2)CCCC1
104 | 15.8 µM | CN1CCN(C2=Nc3cc(Cl)ccc3Nc3ccccc32)CC1
105 | 15.8 µM | O=C(OCCN1CCCC1)C1(c2ccccc2)CCCC1
106 | 14.1 µM | Cc1cc(C)n(-c2nc(NCCCN(C)C)c3c4c(sc3n2)COC(C)(C)C4)n1
107 | 12.6 µM | CCOC(=O)c1sc(=S)n(-c2ccccc2Cl)c1SC
108 | 12.6 µM | CC[N+]1(C)CCC(=C2c3ccccc3CC(=O)c3sccc32)CC1 (configuration not stated)
109 | 11.2 µM | Cc1cc(-n2cccn2)ccc1CN1CCN(CC(C)C)C(CCO)C1 (configuration not stated)
110 | 8.91 µM | O=C(NC(Nc1nc2ccc([N+](=O)[O-])cc2s1)(C(F)(F)F)C(F)(F)F)c1ccccc1
111 | 8.91 µM | O=C(OCCN1CCCCC1)C1(c2ccccc2)CCCC1
112 | 8.91 µM | CN(C)CCC(=O)N1c2ccccc2Sc2ccc(Cl)cc21
113 | 4.47 µM | CC[N+](C)(CC)CCC(c1ccccc1)C1CCCCC1 (configuration not stated)
114 | 2.82 µM | CC1CCC(C(C)C)C(OCC[N+](C)(C)C)C1 (configuration not stated)
115 | 1.12 µM | OC(C#CCN1CCCCC1)(c1ccccc1)c1ccccc1
116 | 0.89 µM | C[N+]1(C)CCCC(OC(=O)C(O)(c2ccccc2)c2ccccc2)C1 (configuration not stated)
117 | 0.32 µM | CN1C2CCC1CC(OC(c1ccccc1)c1ccccc1)C2 (configuration not stated)
